Measured values from patent US8143237B2, “Anti-cancer drugs, and uses relating for malignant melanoma and other cancers” (Kasina Laila Innova Pharmaceuticals Private Limited, priority 2009, dated 2012).
Values after ≈ are worked out from the molar mass of the structure shown. “Also recorded” adds a separate entry of the source. Where two headings read alike, the source gives them in different places.

Key:
[1] = test system: B16 F0 melanoma xenograft; experiment: B16 F0 melanoma xenograft model of C57B6J mice; format: in vivo, mouse; conditions: fourteen days, tumor weight
Method: In vivo efficacy of compound 1 against melanoma growth was evaluated in B 16 F0 melanoma xenograft model of C57B6J mice. C57B6J mice of 6 weeks age (body weight 18-22 g) were purchased from National Institute of Nutrition (NIN), Hyderabad (India). Animals study protocols were approved by Institutional Ethics Committee (IAEC). All the studies were performed in compliance with the Committee for the Purpose of Control and Supervision of Experiments on Animals (CPCSEA) guidelines and OECD guidelines. Animals were allowed free access to standard feed and provided charcoal filtered and UV exposed water ad libitum. The animals were maintained at a controlled temperature (24-26° C.), humidity (45-70%), and 12 h/12 h of light/dark cycle.
To induce the melanoma tumor formation, sub-confluent B16F0 cells were harvested by brief trypsinization and 1×10^6 cells were injected subcutaneously in 0.2 ml phosphate-buffered saline. Drug treatment was started after development of palpable tumors (3-5 days after implantation of the cells). Drugs were prepared in phosphate-buffered saline (10% DMSO, v/v) and either 75 mg/kg of DTIC or 25 mg/kg of compound 1 was administered daily through intra-peritoneal route. Vehicle treated control animals received only 10% DMSO in phosphate buffered saline. After fourteen days of treatment, the animals were sacrificed by CO2 inhalation and tumors were excised and weighed.

[2] = test system: Human umbilical vein endothelial cells (HUVEC); experiment: Endothelial cell migration assay; format: cell-based; conditions: 5 and 10 μg/ml, 18 h
Method: The methodology of endothelial cell migration assay was essentially the same as described earlier with some modifications (Sengupta, K et al., Mol. Cancer. Res. 2004; 2: 150-158.). FALCON™ Cell Culture inserts (Becton Dickinson, USA) with 8 μm-pores in their PET membrane was coated with 0.1 mg/ml of collagen. Human umbilical vein endothelial cells (HUVEC) were added to the cell culture inserts (Becton Dickinson) at a density of 5×10^4 cells/insert. Cells were allowed to migrate through the insert for 18 h in presence of different concentrations of either DTIC or Compound 1. The control culture containing migration assembly received only 0.1% DMSO. […] The membranes of the inserts were then mounted on glass slides. Cells migrated through the membrane pores were counted in 20 random fields under Nikon Eclipse TS 100 microscope at 20× objective.

[3] = test system: HT29 colon cancer cells; experiment: MTT based cell proliferation assay, HT29; conditions: Homo sapiens, HT-29, read-out: Anti-tumor growth potential (IC50) in HT29
Method: MTT [3-(4,5-dimethylthiazol-2-yl)-2,5-diphenyltetrazolium bromide] incorporation based cell proliferation assay was performed using standard procedure. The cytotoxic efficacies of the various selenopheno triazene compounds (compounds 1 to 16) was evaluated in both human malignant melanoma A375 cells and mouse malignant melanoma B16 F0 cells by MTT cell proliferation assay kit (Roche Applied Sciences, Germany). The assay was carried out according to the instruction provided by the vendor. Briefly, equal numbers of cells was plated in 96-well flat-bottomed plates and were incubated with both DTIC and the test compounds (compounds 1 to 16) at various concentrations for a period of three days. Vehicle control culture wells received only a maximum of 0.5% DMSO. Thereafter, 0.5 mg/ml of MTT reagent was added to each well and the microplate was incubated further for 4 h at 37° C. in presence of 5% CO2. […] After complete solubilization of the formazan crystals, the absorbance was read at 540 nm in a microplate reader (BioRad, USA). […]
Anti-tumor growth potential of Compound 1 and DTIC were evaluated in various human tumor cells such as A549 lung tumor cells, DU145 prostate tumor cells, HT29 colon cancer cells and MCF-7 (ER^+) breast tumor cells in vitro, by using MTT based cell proliferation assay as described earlier (example 17). […]

[4] = test system: A375 human melanoma xenograft; experiment: A375 human melanoma xenograft model of nu/nu BALB/c nude mice; format: in vivo, mouse; conditions: 25 mg/kg daily intra-peritoneal, twenty one days, tumor volume, p=0.04322
Method: To further substantiate the anti-melanoma efficacy of the Compound 1, this compound was tested for its anti-melanoma efficacy in A375 human melanoma xenograft model of nu/nu BALB/c nude mice. The animals of 6-8 weeks age (body weight 18-22 g) were used in this study. Animals study protocols were approved by Institutional Ethics Committee (IAEC). All the studies were performed in compliance with the Committee for the Purpose of Control and Supervision of Experiments on Animals (CPCSEA) guidelines and OECD guidelines. Animals were allowed free access to sterile standard rodent diet and provided with charcoal filtered and UV exposed water ad libitum. The animals were housed in a sterile room and were located individually in ventilated cages. The room was maintained at a controlled temperature (24-26° C.), humidity (45-70%), and 12 h/12 h of light/dark cycle.
To induce the melanoma tumor, sub-confluent A375 human melanoma cells were harvested by brief trypsinization and 1×10^6 cells were injected subcutaneously in 0.2 ml phosphate-buffered saline. Drug treatment was started after development of palpable tumors (6-7 days after implantation of the cells). At this point the tumor take rate was 100%. […] After twenty one days of treatment, the animals were sacrificed by CO2 inhalation and tumors growth was measured by the following formula (Friedman H S et al., Mol Cancer Ther 2002; 1:943-948). […]

[5] = cited from earlier work
[6] = test system: human plasma protein; conditions: at therapeutic concentrations; cited from earlier work
[7] = test system: malignant melanoma; conditions: single-agent, malignant melanoma patients; cited from earlier work
[8] = patient with renal and hepatic dysfunctions

| Compound | Inhibition in tumor growth, mouse melanoma xenograft model of C57B6J mice ([1]; 25 mg/kg daily intra-peritoneal) [%] | Migration of human endothelial cells (HUVEC) [2] | melting point [°C] | IC50 [3] [µg/mL] | Inhibition of melanoma tumor growth, A375 human melanoma xenograft model of nude mice [4] [%] | Inhibition in tumor growth, mouse melanoma xenograft model of C57B6J mice ([1]; 75 mg/kg daily intra-peritoneal) [%] | Initial half life of disappearance from plasma ([5]; biphasic disappearance) [min] | Average cumulative excretion of unchanged drug in the urine ([5]; in six hours) | Initial half life of disappearance from plasma [5, 8] [min] | Terminal half life of disappearance from plasma [5, 8] [min] | Binding to human plasma protein [6] | Complete responses [7] |
| --- | --- | --- | --- | --- | --- | --- | --- | --- | --- | --- | --- | --- |
| Cc1[se]c(C(N)=O)cc1/N=N/N(C)C [Compound 1, 4-[(dimethylamino)diazenyl]-5-methylselenophene-2-carboxamide] | 31.2 | significant inhibition of migration; also recorded: inhibited endothelial cell migration | 170 to 172 | 13.3 (≈ 51.3 µM) | 46.52 | – | – | – | – | – | – | – |
| CN(C)N=Nc1[nH]cnc1C(N)=O [DTIC, 5-(3,3-dimethyl-1-trizeno)-imidazole-4-carboxamide, reference compound] | – | – | – | 141 (≈ 774 µM) | – | 17 | 19 | 40 % of the injected dose | 55 | 432 | not appreciably bound | less than 5 % of patients |
